Data taken from US20220235068A1, “TETRACYCLIC COMPOUNDS AS CDC7 INHIBITORS” (Chia Tai Tianqing Pharmaceutical Group Co., Ltd., priority 2019, published 2022).
Structures can show the parent of a compound that is named as a salt. Where two headings read alike, the source gives them in different places.

Assays:
[1] = target: T1, Cdc7/DBF4 (Homo sapiens, UniProt O00311); test: Inhibitory effect against activity of Cdc7/DBF4 (ADP-Glo kinase detection kit); assay type: biochemical; settings: 10 μM ATP, 25° C., 60 min
T1 construct: purchased Promega
T1 sequence (O00311 whole entry): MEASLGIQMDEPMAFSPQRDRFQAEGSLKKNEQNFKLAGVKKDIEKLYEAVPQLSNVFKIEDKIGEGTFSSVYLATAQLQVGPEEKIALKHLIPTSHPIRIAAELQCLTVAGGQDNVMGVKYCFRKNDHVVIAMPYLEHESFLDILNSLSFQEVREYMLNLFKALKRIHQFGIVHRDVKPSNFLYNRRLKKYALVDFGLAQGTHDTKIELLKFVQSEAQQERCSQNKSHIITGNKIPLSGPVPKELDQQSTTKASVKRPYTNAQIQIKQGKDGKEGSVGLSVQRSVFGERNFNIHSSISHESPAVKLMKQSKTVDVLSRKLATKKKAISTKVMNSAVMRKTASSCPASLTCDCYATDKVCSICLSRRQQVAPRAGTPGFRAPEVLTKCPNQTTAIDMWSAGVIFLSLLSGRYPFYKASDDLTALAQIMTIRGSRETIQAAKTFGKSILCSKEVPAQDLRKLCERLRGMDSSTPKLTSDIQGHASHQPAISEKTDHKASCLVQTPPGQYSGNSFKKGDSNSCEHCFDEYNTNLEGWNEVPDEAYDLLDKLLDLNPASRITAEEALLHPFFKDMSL
T1 sequence (Q9UBU7 whole entry partner): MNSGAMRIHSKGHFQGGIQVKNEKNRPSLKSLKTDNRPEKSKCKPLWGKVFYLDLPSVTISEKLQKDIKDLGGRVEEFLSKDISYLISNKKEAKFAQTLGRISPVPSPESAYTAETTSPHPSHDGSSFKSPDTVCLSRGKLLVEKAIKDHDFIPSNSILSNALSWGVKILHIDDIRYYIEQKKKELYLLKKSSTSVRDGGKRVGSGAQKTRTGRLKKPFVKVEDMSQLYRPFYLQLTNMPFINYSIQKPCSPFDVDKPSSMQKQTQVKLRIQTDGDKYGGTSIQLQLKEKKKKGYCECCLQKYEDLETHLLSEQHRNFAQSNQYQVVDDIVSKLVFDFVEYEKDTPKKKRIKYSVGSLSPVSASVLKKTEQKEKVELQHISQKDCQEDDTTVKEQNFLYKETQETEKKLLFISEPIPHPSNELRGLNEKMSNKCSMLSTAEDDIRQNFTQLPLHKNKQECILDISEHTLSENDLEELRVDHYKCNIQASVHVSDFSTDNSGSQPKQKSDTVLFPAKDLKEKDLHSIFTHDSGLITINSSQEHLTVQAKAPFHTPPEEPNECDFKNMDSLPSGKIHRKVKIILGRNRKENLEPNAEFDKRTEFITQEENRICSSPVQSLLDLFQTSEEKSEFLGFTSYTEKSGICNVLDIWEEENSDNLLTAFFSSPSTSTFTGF
Procedure: Cdc7/DBF4 kinase detection kit purchased from Promega; and
(§1) Nivo multi-marker analyzer (PerkinElmer).
An enzyme, a substrate, adenosine triphosphate and an inhibitor were diluted with the kinase buffer in the kit. A test compound was serially 5-fold diluted to an 8th concentration, i.e., from 10 μM to 0.13 nM, with the DMSO concentration being 5%, and the duplicate well experiment was set up. To a microplate were added 1 μL of inhibitors of various concentration gradients, 2 μL of CDCl7/DBF4 kinase (6.25 ng), 2 μL of a mixture of substrate and ATP (10 μM adenosine triphosphate, 0.2 μg/μL substrate), and the final concentration gradient of the compound was diluted from 2 μM to 0.025 nM. The reaction system was left reacting at 25° C. for 60 min. After the reaction was completed, 5 μL of ADP-Glo reagent was added to each well, and the reaction was continued at 25° C. for 40 min. After the reaction was completed, 10 μL of the kinase detection reagent was added to each well. After 30 min of reaction at 25° C., the chemiluminescence was read using the multi-marker analyzer with an integration time of 0.5 s.
The original data were converted to inhibition using the equation (Sample−Min)/(Max−Min)×100%, and the IC50 value was then curve fitted using four parameters (obtained from the “log(inhibitor) vs. response-Variableslope” model in GraphPadPrism). Table 1 provides the enzymatic inhibitory activity of the compounds disclosed herein against Cdc7/DBF4.

[2] = tested on: Colo205 cells; test: Inhibitory effect against Colo205 cell proliferation (CellTiter-Glo); assay type: cell-based; settings: incubation 3 days
Procedure: 1640 medium; fetal bovine serum; penicillin/streptomycin antibiotics purchased from Wisent;
CellTiter-Glo (chemiluminescence detection reagent for cell viability) reagent purchased from Promega;
COL0205 cell line purchased from Wuhan Procell Life Science&Technology Co., Ltd; and
as §1
COL0205 cells were plated on to white 96-well plates by adding 80 μL of cell suspension (containing 3000 COL0205 cells) to each well. The cell plate was incubated in a CO2 incubator overnight.
A test compound was serially 3-fold diluted to an 8th concentration, i.e., from 2 mM to 920 nM, and the duplicate well experiment was set up. 78 μL of medium was added to an intermediate plate, 2 μL of the serially diluted compound was transferred to corresponding wells of the intermediate plate, and after mixing, the mixture was transferred to the cell plate at 20 μL per well. The concentration of the compound transferred to the cell plate ranged from 10 μM to 4.57 nM. The cell plate was incubated in a CO2 incubator for 3 days. Another cell plate was provided for reading signal values on the day of compound addition and these values were used as […] in data analysis. The chemiluminescence detection reagent for cell viability was added to this cell plate at 25 μL per well and the luminescence signals were stabilized by incubation at room temperature for 10 min. Readings were taken using the multi-marker analyzer. The chemiluminescence detection reagent for cell viability was added to the cell plate at 25 μL per well and the luminescence signals were stabilized by incubation at room temperature for 10 min. Readings were taken using the multi-marker analyzer.
The original data were converted to inhibition using the equation (Sample−Min)/(Max−Min)×100%, and the IC50 value was then curve fitted using four parameters (obtained from the “log(inhibitor) vs. response-Variableslope” model in GraphPadPrism). Table 2 provides the inhibitory activity of the compounds disclosed herein against COL0205 cell proliferation.

[3] = tested on: human colorectal cancer cell SW620; test: In vivo pharmacodynamic study in subcutaneous xenograft tumor nude mouse model of SW620; settings: BID, p.o.
Procedure: Human colorectal cancer cell SW620 cells of the 7th passage were cultured in an L-15 medium containing 10% fetal bovine serum, 100 U/mL penicillin and 100 μg/mL streptomycin through in vitro monolayer culture in an incubator at 37° C./[…] for 4 passages with conventional medium replacement. At a cell saturation of 80-90%, the cells were digested with pancreatin-EDTA, counted and resuspended in PBS at a density of 5×10^6 cells/100 μL.
Cell inoculation: Each mouse was inoculated on the right cervical dorsum with 0.1 mL of the cell suspension of 5×10^6 SW620 cells in PBS. At an average tumor volume up to about 134 mm^3, the mice were randomly grouped and administrated.
Tumor diameters were measured twice weekly using a vernier caliper. The tumor volume was calculated using the following formula: V=0.5 a×b^2, where a and b represent the long diameter and short diameter of the tumor, respectively.
The anti-tumor therapeutic effect of the compound was evaluated by TGI (%) or relative tumor proliferation rate T/C (%). Relative tumor proliferation rate T/C (%)=TRTV/CRTV×100% (TRTV: RTV of treatment group; CRTV: RTV of negative control group). Relative tumor volumes (RTVs) were calculated from the tumor measurement results using the following formula: RTV=Vt/VO, where VO is the average tumor volume measured at the time of grouping (i.e., DO), Vt is the average tumor volume measured at a certain measurement, and TRTV and CRTV are taken from the data measured on the same day.
TGI (%), reflects the tumor growth inhibition rate. TGI (%)=[(1−(average tumor volume at the end of administration in a treatment group−average tumor volume at the start of administration of the treatment group))/(average tumor volume at the end of treatment of the vehicle control group−average tumor volume at the start of treatment of the vehicle control group)]×100%.
After day 22 of the grouping, mice were euthanized, plasma and tumors were sampled and tumors were weighed and photographed.

[4] = Single-dose pharmacokinetic study in mice; assay type: in vivo; settings: male CD-1 mice
Procedure: To evaluate the pharmacokinetic behavior by using male CD-1 mice as test animals and determining the drug concentrations of the compounds in the plasma after single-dose administration. Healthy adult male CD-1 mice were selected for intragastric administration. A compound was mixed with an appropriate amount of 5% DMSO/95% (10% hydroxypropyl-β-cyclodextrin), vortexed and sonicated to prepare a 1 mg/mL clear solution for later use. After the mice were administered intravenously at 2 mg/kg and orally at 10 mg/kg, whole blood was collected at certain time points, and plasma was separated. After pretreatment of the samples, the drug concentration was measured by LC-MS/MS, and pharmacokinetic parameters were calculated using Phoenix WinNonlin software.

[5] = mouse, plasma, IV: 2 mg/kg, PO: 10 mg/kg

## CC1(c2nc3c4c(sc3c(=O)[nH]2)-c2c[nH]nc2CCC4)CCCN1 (single isomer, unassigned) [Compound 4-1 hydrochloride]
[1]
  IC50: 4.56 nM

## O=c1[nH]c(C2CCCNC2)nc2c3c(sc12)-c1c[nH]nc1CCC3 (single isomer, unassigned) [Compound 8-2 hydrochloride]
[1]
  IC50: 1.17 nM

## O=c1[nH]c([C@H]2CC3CCN2CC3)nc2c3c(sc12)-c1c[nH]nc1CCC3 (single isomer, unassigned) [Compound 1-2 hydrochloride]
[1]
  IC50: 1.29 nM
[2]
  IC50: 53.6 nM

## CN1CCCC1c1nc2c3c(sc2c(=O)[nH]1)-c1c[nH]nc1CCC3 (single isomer, unassigned) [Compound 3-2 hydrochloride]
[1]
  IC50: 0.42 nM

## O=c1[nH]c(C2CCCNC2)nc2c3c(sc12)-c1c[nH]nc1CCC3 (single isomer, unassigned) [Compound 8-1 hydrochloride]
[1]
  IC50: 4.27 nM

## O=c1[nH]c(C2CCCN2)nc2c3c(sc12)-c1c[nH]nc1CCC3 (single isomer, unassigned) [Compound 2-1 hydrochloride]
[1]
  IC50: 3.73 nM

## Cc1n[nH]cc1-c1cc2nc([C@@H]3CC4CCN3CC4)[nH]c(=O)c2s1 [TAK-931, reference compound]
[3]; 40 mg/kg
  Tumor volume (Day 1): 134 ± 13 mm^3
  RTV (Day 21): 1.36
  T/C (%) (Day 21): 16%
  TGI (%) (Day 21): 96%
  Tumor volume (Day 21): 176 ± 27 mm^3

## CN1CCCCC1c1nc2c3c(sc2c(=O)[nH]1)-c1c[nH]nc1CCC3 (single isomer, unassigned) [Compound 7-2 formate]
[1]
  IC50: 2.7 nM

## CN1CCCC1c1nc2c3c(sc2c(=O)[nH]1)-c1c[nH]nc1CCC3 (single isomer, unassigned) [Compound 3-1 hydrochloride]
[1]
  IC50: 1.19 nM

## O=c1[nH]c(C2CCCN2)nc2c3c(sc12)-c1c[nH]nc1CCC3 (single isomer, unassigned) [Compound 2-2 hydrochloride]
[1]
  IC50: 1.52 nM

## O=c1[nH]c([C@H]2CC3CCN2CC3)nc2c3c(sc12)-c1c[nH]nc1CCC3 (single isomer, unassigned) [Compound 1-1 hydrochloride]
[1]
  IC50: 3.02 nM
[3]; 2.5 mg/kg
  Tumor volume (Day 1): 134 ± 13 mm^3
  RTV (Day 21): 1.88
  T/C (%) (Day 21): 22%
  TGI (%) (Day 21): 89%
  Tumor volume (Day 21): 237 ± 27 mm^3
[3]; 5 mg/kg
  Tumor volume (Day 1): 134 ± 15 mm^3
  RTV (Day 21): 0.93
  T/C (%) (Day 21): 11%
  TGI (%) (Day 21): 100%
  Tumor volume (Day 21): 133 ± 32 mm^3
[3]; 7.5 mg/kg
  Tumor volume (Day 1): 134 ± 14 mm^3
  RTV (Day 21): 0.31
  T/C (%) (Day 21): 4%
  TGI (%) (Day 21): 108%
  Tumor volume (Day 21): 53 ± 16 mm^3
[4]; IV: 2 mg/kg, PO: 10 mg/kg
  Maximum concentration: 2230 nM
[4]; mouse, plasma, IV 2 mg/kg, read-out: AUC0-last (intravenous injection)
  AUC(0-t): 2.45 µM·h
[4]; [5]
  bioavailability: 71.4%
  clearance: 35.2 mL/min/kg
  half-life: 4.03 h
[4]; mouse, plasma, IV: 2 mg/kg, PO: 10 mg/kg, read-out: Apparent volume of distribution
  Vd: 4.13 L/kg
[4]; mouse, plasma, PO 10 mg/kg, read-out: AUC0-last (oral)
  AUC(0-t): 9.08 µM·h
[2]
  IC50: 13.8 nM

## O=c1[nH]c(C2C3CCN2CC3)nc2c3c(sc12)-c1c[nH]nc1CCC3 (single isomer, unassigned) [Compound 14-2 hydrochloride]
[1]
  IC50: 1.43 nM

## CN1CCCC(c2nc3c4c(sc3c(=O)[nH]2)-c2c[nH]nc2CCC4)C1 (single isomer, unassigned) [Compound 9-2 hydrochloride]
[1]
  IC50: 1.09 nM

## CN1CCCC1(C)c1nc2c3c(sc2c(=O)[nH]1)-c1c[nH]nc1CCC3 (single isomer, unassigned) [Compound 5-1 hydrochloride]
[1]
  IC50: 2.04 nM

## O=c1[nH]c(C2C3CCN2CC3)nc2c3c(sc12)-c1c[nH]nc1CCC3 (single isomer, unassigned) [Compound 14-1 hydrochloride]
[1]
  IC50: 1.21 nM
[2]; Homo sapiens, COLO 205, 72 h
  IC50: 50.1 nM

## CN1CCC(C)(c2nc3c4c(sc3c(=O)[nH]2)-c2c[nH]nc2CCC4)CC1 [Compound 13 hydrochloride]
[1]
  IC50: 5.66 nM

## O=c1[nH]c(C2CCNCC2)nc2c3c(sc12)-c1c[nH]nc1CCC3 [Compound 10 hydrochloride]
[1]
  IC50: 1.69 nM

## CC(C)N1CCCC1c1nc2c3c(sc2c(=O)[nH]1)-c1c[nH]nc1CCC3 (single isomer, unassigned) [Compound 6-2 hydrochloride]
[1]
  IC50: 0.99 nM

## CN1CCCC1(C)c1nc2c3c(sc2c(=O)[nH]1)-c1c[nH]nc1CCC3 (single isomer, unassigned) [Compound 5-2 hydrochloride]
[1]
  IC50: 2.35 nM

## CN1CCCCC1c1nc2c3c(sc2c(=O)[nH]1)-c1c[nH]nc1CCC3 (single isomer, unassigned) [Compound 7-1 formate]
[1]
  IC50: 3.07 nM

## CN1CCC(c2nc3c4c(sc3c(=O)[nH]2)-c2c[nH]nc2CCC4)CC1 [Compound 11 hydrochloride]
[1]
  IC50: 4.85 nM

## CC1(c2nc3c4c(sc3c(=O)[nH]2)-c2c[nH]nc2CCC4)CCCN1 (single isomer, unassigned) [Compound 4-2 hydrochloride]
[1]
  IC50: 6.73 nM

## CN1CCCC(c2nc3c4c(sc3c(=O)[nH]2)-c2c[nH]nc2CCC4)C1 (single isomer, unassigned) [Compound 9-1 hydrochloride]
[1]
  IC50: 4.85 nM

## CC1(c2nc3c4c(sc3c(=O)[nH]2)-c2c[nH]nc2CCC4)CCNCC1 [Compound 12 hydrochloride]
[1]
  IC50: 1.38 nM

## CC(C)N1CCCC1c1nc2c3c(sc2c(=O)[nH]1)-c1c[nH]nc1CCC3 (single isomer, unassigned) [Compound 6-1 hydrochloride]
[1]
  IC50: 1.7 nM
